This note sets out measurements from ChEMBL document CHEMBL1201862, “PubChem BioAssay data set” (2004).

Test systems include MDA-MB-435; OVCAR-5; UACC-257; SK-MEL-2; SK-MEL-5; MOLT-4; UACC-62; COLO 205; CAKI-1; SR; NCI/ADR-RES; DU-145; HCT-116; LOX IMVI; OVCAR-4; MCF7; OVCAR-8; A549; HCC 2998; RPMI-8226.
What all share (assay): DTP human tumour cell line panel, 48 h

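The compound was tested at five concentrations on cells cultured in 96-well plates, with a 48-hour exposure period. Abbreviation: GI50, concentration required for 50% inhibition of growth.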 The source made the active and inactive calls. No stated cut-off is given here; in the data, active = GI50 up to about 1.1 µM and inactive = higher.

Broadly, the GI50 is the concentration giving 50% growth inhibition. Turning to `COc1nc(OC)nc(-c2cccc(F)c2)n1`, the GI50 was 15 µM (inactive) in the assay on MDA-MB-435; 11.5 µM (inactive) in the assay with OVCAR-5; 14.3 µM (inactive) in the assay on UACC-257; 18.8 µM (inactive) in the assay on SK-MEL-2; 15.6 µM (inactive) in the assay with SK-MEL-5; 4.99 µM (inactive) in the assay with MOLT-4. Besides, the GI50 was 8.51 µM (inactive) in the assay on UACC-62; 15.4 µM (inactive) in the assay on COLO 205; < 0.01 µM (active) in the assay on CAKI-1; 2.2 µM (inactive) in the assay with SR; 14.3 µM (inactive) with NCI/ADR-RES; 13.2 µM (inactive) in the assay on DU-145. Besides, the GI50 was 16.7 µM (inactive) in the assay on HCT-116; 17 µM (inactive) with LOX IMVI; 15.7 µM (inactive) with OVCAR-4; 15.9 µM (inactive) with MCF7; 23.4 µM (inactive) in the assay with OVCAR-8; 17.1 µM (inactive) in the assay with A549. In addition, the GI50 is 13.4 µM (inactive) in the assay with HCC 2998 and 10.8 µM (inactive) with RPMI-8226.

For `CC1(C)S[C@H](CN)N[C@H]1C(=O)OC(c1ccccc1)c1ccccc1`, the GI50 was 30.3 µM (inactive) in the assay on MDA-MB-435; 60.8 µM (inactive) with OVCAR-5; 17.4 µM (inactive) with UACC-257; 27.7 µM (inactive) with SK-MEL-2; 17.2 µM (inactive) in the assay on SK-MEL-5; 24.3 µM (inactive) with MOLT-4. For the same molecule, the GI50 was 22.9 µM (inactive) in the assay with UACC-62; 17.6 µM (inactive) in the assay on COLO 205; 34.4 µM (inactive) in the assay on CAKI-1; 27.9 µM (inactive) in the assay with SR; > 100 µM (inactive) with NCI/ADR-RES; > 100 µM (inactive) in the assay on DU-145. The GI50 is 33.8 µM (inactive) with HCT-116; 17.4 µM (inactive) in the assay with LOX IMVI; 27.3 µM (inactive) in the assay with OVCAR-4; 61.9 µM (inactive) in the assay with MCF7; 57.9 µM (inactive) in the assay with OVCAR-8; 42.2 µM (inactive) with A549. The results for the GI50 with HCC 2998 and in the assay with RPMI-8226 were 18.6 µM (inactive) and 21.6 µM (inactive), respectively.

In the case of `Cc1c2c(c(C)n1-c1ccccc1)C(=O)N(CCCCN1CCN(c3ccccc3)CC1)C2=O`, the GI50 is 8.05 µM (inactive) in the assay on MDA-MB-435; 49.3 µM (inactive) with OVCAR-5; 5.36 µM (inactive) with UACC-257; 22.3 µM (inactive) in the assay on SK-MEL-2; 3.7 µM (inactive) in the assay on SK-MEL-5; 5.71 µM (inactive) with MOLT-4. Also, the GI50 in the assay with UACC-62 was 15.8 µM (inactive); with COLO 205, 6.62 µM (inactive); in the assay with CAKI-1 it was 31.1 µM (inactive); in the assay on SR it was 8.85 µM (inactive); with NCI/ADR-RES, 17 µM (inactive); in the assay with DU-145 it was 19 µM (inactive). The GI50 with HCT-116 is 7.71 µM (inactive); in the assay with LOX IMVI it was 10 µM (inactive); with OVCAR-4, 13 µM (inactive); with MCF7, 9.42 µM (inactive); in the assay with OVCAR-8, 14.2 µM (inactive); with A549, 14.5 µM (inactive). Moreover, the GI50 in the assay on HCC 2998 is 4.99 µM (inactive); in the assay with RPMI-8226 it was 7.52 µM (inactive).

`N#CCc1nc(-c2cc3ccc(O)cc3oc2=O)cs1`: the GI50 in the assay on MDA-MB-435 is 33.1 µM (inactive); in the assay with OVCAR-5 it was > 100 µM (inactive); in the assay on UACC-257, 41.7 µM (inactive); in the assay with SK-MEL-2, 27.2 µM (inactive); with SK-MEL-5, 38.7 µM (inactive); in the assay with MOLT-4 it was 37.9 µM (inactive). Also, the GI50 with UACC-62 is 22.6 µM (inactive); in the assay with COLO 205, > 100 µM (inactive); in the assay on CAKI-1, > 100 µM (inactive); with SR, 29.4 µM (inactive); in the assay with NCI/ADR-RES it was > 100 µM (inactive); with DU-145, 83.4 µM (inactive). In addition, the GI50 is 53.1 µM (inactive) in the assay on HCT-116; 46.2 µM (inactive) in the assay with LOX IMVI; 43.4 µM (inactive) with OVCAR-4; 47.6 µM (inactive) in the assay on MCF7; > 100 µM (inactive) in the assay on OVCAR-8; 55 µM (inactive) in the assay with A549. Besides, the GI50 in the assay with HCC 2998 was 87.1 µM (inactive); in the assay with RPMI-8226, 25.7 µM (inactive).

With `O=C(OC1OC2COC(=O)c3cc(O)c(O)c(O)c3-c3c(cc(O)c(O)c3O)C(=O)OC3C2OC(=O)[C@@]24CC(=O)[C@@](O)(OC25C(=O)O[C@H]2[C@@H](O)CO[C@@]25O)C2(O)Oc5c(O)c(O)cc(c5C24)C(=O)OC13)c1cc(O)c(O)c(O)c1` (stereo not given in full), the GI50 with MDA-MB-435 was 17.2 µM (inactive); with OVCAR-5, 47.2 µM (inactive); in the assay on UACC-257, > 100 µM (inactive); in the assay with SK-MEL-2, > 100 µM (inactive); in the assay on SK-MEL-5, 42.7 µM (inactive); with MOLT-4, 40.5 µM (inactive). Moreover, the GI50 was 35.7 µM (inactive) with UACC-62; 56.4 µM (inactive) in the assay with COLO 205; 12.1 µM (inactive) in the assay with CAKI-1; 30.3 µM (inactive) in the assay with SR; 29.2 µM (inactive) with NCI/ADR-RES; 44.7 µM (inactive) in the assay with DU-145. The GI50 with HCT-116 was 36.9 µM (inactive); with LOX IMVI, 12.6 µM (inactive); in the assay on OVCAR-4 it was 37.2 µM (inactive); in the assay on MCF7 it was 13.6 µM (inactive); in the assay with OVCAR-8 it was 37.1 µM (inactive); with A549 it was 27.7 µM (inactive). The GI50 with HCC 2998 was 28 µM (inactive); in the assay with RPMI-8226, 99.5 µM (inactive).

On to `CCOC(=O)C12CCC(c3c(C)cccc3C)(O1)C(C(=O)OC)=C2C(=O)OC` (stereo not given), for which the concentration for 50% growth inhibition (GI50) was 0.499 µM (active) in the assay on MDA-MB-435; 3.19 µM (inactive) in the assay on OVCAR-5; 2.58 µM (inactive) in the assay on UACC-257; > 8.99 µM (inactive) in the assay on SK-MEL-2; 0.668 µM (active) in the assay with SK-MEL-5; 4.74 µM (inactive) with MOLT-4. Also, the GI50 in the assay with UACC-62 was 4.73 µM (inactive); with COLO 205, 1.87 µM (inactive); in the assay on CAKI-1 it was > 5.6 µM (inactive); in the assay with SR, 0.646 µM (active); in the assay with NCI/ADR-RES, > 9.25 µM (inactive); with DU-145, 4.24 µM (inactive). The GI50 was 2.14 µM (inactive) with HCT-116; 2.39 µM (inactive) in the assay with LOX IMVI; > 9.02 µM (inactive) in the assay on OVCAR-4; 1.3 µM (inactive) in the assay with MCF7; 5.4 µM (inactive) with OVCAR-8; 3.62 µM (inactive) with A549. Also, the GI50 in the assay with HCC 2998 is 6.7 µM (inactive); with RPMI-8226, 3.92 µM (inactive).

In the case of `Cc1ccc(Nc2cc(=O)[nH]c(=S)[nH]2)cc1`, the GI50 in the assay on MDA-MB-435, in the assay with OVCAR-5, in the assay on UACC-257, in the assay with SK-MEL-2, with SK-MEL-5 and in the assay on MOLT-4 was > 100 µM (inactive) throughout. Further, the GI50 in the assay on UACC-62, in the assay with COLO 205, with CAKI-1, with SR, in the assay on NCI/ADR-RES and in the assay on DU-145 was > 100 µM (inactive) throughout. The GI50 in the assay on HCT-116, in the assay with LOX IMVI, in the assay with OVCAR-4, in the assay on MCF7, in the assay on OVCAR-8 and with A549 was > 100 µM (inactive) each time. In addition, the GI50 with HCC 2998 and in the assay on RPMI-8226 was > 100 µM (inactive) in each case.
